Laboratory results: patent publication US8420592B2, “Methods of treatment using single doses of oritavancin” (The Medicines Company, priority 2008, dated 2013)

Legend:
Enterococcus faecalis = experiment: Phase 2 cSSSI study: cure rate by baseline pathogen; assay type: in vivo; settings: Enterococcus faecalis at baseline
Method: (§1) The primary efficacy endpoint was the clinical response in the CE population at TOC, which occurred 20 to 28 days after study enrollment on Day 1. Clinical response was determined by the investigator as part of the end-of-therapy, TOC, and late follow-up procedures by assessing signs and symptoms including fever, pain, tenderness, erythema, induration, edema, purulent drainage, eschar, and devitalized tissue. A clinical response of cure, improvement, failure, or indeterminate was assigned at end-of-therapy and TOC by the investigator based on clinical signs and symptoms. At late follow-up, the investigator could assign the clinical response of relapse in addition to cure, improvement, or indeterminate. Only patients with a clinical response of cure or improvement at TOC were assessed for clinical response at late follow-up.
(§2) Cure was defined as resolution of purulent drainage, pain, edema, fever, erythema, tenderness, and induration. Serous drainage or aspirate and/or granulation tissue could be present. Improvement was defined as resolution of purulent drainage and, in the case of cellulitis, cessation of fever and pain. Residual erythema, edema, pain (in the case of wound or abscess), tenderness, and/or induration could be present as could serous drainage, granulation tissue, eschar, and/or devitalized tissue. Failure included any of the following: presence of purulent drainage (or aspirate) and/or fever; the unanticipated need for abscess drainage or removal of sutures (for treatment of infection)>48 hours after initiation of study therapy; or treatment with nonstudy systemic antibiotic having activity against gram-positive pathogen(s) for the primary infection site or use of topical antibiotics at the site of primary infection 24 hours or more after initiation of study medication therapy.
(§3) Blood and infection site cultures were obtained within three days of enrollment (often done at the time of enrollment). End-of-therapy, TOC, and late follow-up (or at early relapse) cultures were obtained from the infection site if clinically indicated. […] Specimens were cultured and pathogens were identified at each investigative site's certified laboratory. All isolated gram-positive pathogen(s) that were obtained from the infection site at baseline/randomization and up to and including the TOC time point were subcultured and sent to a central laboratory (Covance Clinical Laboratories, Indianapolis, Ind.) for confirmatory identification and susceptibility testing. In cases of discrepancy between the local and the central laboratory, central laboratory results were used.

Staphylococcus aureus = experiment: as above; assay type: in vivo; settings: S. aureus at baseline, TOC
Method: as §1, §2, §3

Streptococcus agalactiae = experiment: as above; assay type: in vivo; settings: Streptococcus agalactiae at baseline
Method: as §1, §2, §3

Streptococcus pyogenes = experiment: as above; assay type: in vivo; settings: Streptococcus pyogenes at baseline
Method: as §1, §2, §3

[1] = tested on: MRSA (S. aureus NRS123 and clinical MRSA strains); experiment: Neutropenic-mouse thigh infection model; assay type: in vivo, Staphylococcus aureus; settings: for Mean Log CFU/thigh from baseline: 72 h
Method: (§4) Methods: Thigh infection was established for 14 clinical SA isolates (3 MSSA and 11 MRSA; MICs 0.0015 to 2 μg/mL) in neutropenic CD-1 mice (n=3/group) with 5×10^5 colony forming units (CFU) of cells. Single intravenous doses of ORI (0.5 to 40 mg/kg) were tested against one MSSA and one MRSA strain. […] Both thighs were harvested and CFU counts were evaluated after 24 h (single doses) or 72 h (HEQ doses) treatment.
(§5) In vivo studies: All studies were performed in accordance with protocols that were approved by the Institutional Animal Care and Use Committee. Thigh infection was established for 14 clinical S. aureus isolates in neutropenic CD-1 mice (19-21 g, n=3/group) with 5×10^5 colony forming units (CFU) of cells in both thighs. In the single dose-response study, the number of bacteria/thigh was monitored 24 h post-infection (PI). In the human equivalent (HEQ) dose-ranging study, the bacterial titer was determined in mouse thighs at 2, 4, 8, 12, 24, 48 and 72 h PI. Thighs were serially diluted and plated on Baird-Parker agar plates to determine the bacterial titer. The limit of detection was 1.69 Log10 CFU/thigh. Bacterial titer decreases were calculated (compared to starting inoculum) in thighs at 72 h PI for each HEQ dose regimen of ORI.
(§6) Antibiotherapy: 1) In the single dose response study, mice were treated intravenously (IV) with ORI at doses ranging from 0.4 to 40 mg/kg at lh PI. 2) In the HEQ dose-ranging study, starting at 1 h PI, the mice received a multiple IV dose regimen to simulate human drug concentration profile. […]
(§7) Data analysis: The inhibitiory sigmoid Emax model was used to calculate the ED50 of oritavancin (dose resulting in 50% of the maximal bacterial killing) ±95% confidence interval by using the GraphPad Prism software. The statistical calculations to compare bacterial titer from each experimental group were performed according to the Mann-Whitney U test by using StatsDirect software. p-values below 0.05 were considered significant.

[2] = tested on: MSSA (S. aureus ATCC13709 and clinical MSSA strains); experiment: Neutropenic-mouse thigh infection model; assay type: in vivo, Staphylococcus aureus; settings: for Log kill / Mean Log CFU/thigh from baseline: 72 h; for Log kill: S. aureus ATCC13709; for Mean Log CFU/thigh from baseline: MSSA (3 strains)
Method: as §4, §5, §6, §7

[3] = tested on: S. aureus (MSSA, MRSA, and VRSA); settings: within 15 minutes to 2 hours against MSSA, McKay et al. 2009; cited from earlier work

SMILES: CN[C@H](CC(C)C)C(=O)N[C@H]1C(=O)N[C@@H](CC(N)=O)C(=O)N[C@H]2C(=O)N[C@H]3C(=O)N[C@H](C(=O)N[C@H](C(=O)O)c4cc(O)cc(O)c4-c4cc3ccc4O)[C@H](O[C@H]3C[C@](C)(N)[C@@H](O)[C@H](C)O3)c3ccc(c(Cl)c3)Oc3cc2cc(c3O[C@@H]2O[C@H](CO)[C@@H](O)[C@H](O)[C@H]2O[C@H]2C[C@](C)(NCc3ccc(-c4ccc(Cl)cc4)cc3)[C@@H](O)[C@H](C)O2)Oc2ccc(cc2Cl)[C@H]1O [Oritavancin, N-(4-(4-chlorophenyl)benzyl)A82846B]
- % of patients cured (cure and improvement) (Enterococcus faecalis; 200 mg daily dose): 50.0%
- % of patients cured (cure and improvement) (Enterococcus faecalis; 800 mg infrequent dose): 100%
- % of patients cured (cure and improvement) (Enterococcus faecalis; 1200 mg single dose): 100%
- % of patients cured (cure and improvement) (Staphylococcus aureus; 200 mg daily dose): 67.4%
- % of patients cured (cure and improvement) (Staphylococcus aureus; 800 mg infrequent dose): 79.5%
- % of patients cured (cure and improvement) (Staphylococcus aureus; 1200 mg single dose): 78.9%
- % of patients cured (cure and improvement) (Streptococcus agalactiae; 200 mg daily dose): 33.3%
- % of patients cured (cure and improvement) (Streptococcus agalactiae; 800 mg infrequent dose): 100%
- % of patients cured (cure and improvement) (Streptococcus agalactiae; 1200 mg single dose): 100%
- % of patients cured (cure and improvement) (Streptococcus pyogenes; 200 mg daily dose): 66.7%
- % of patients cured (cure and improvement) (Streptococcus pyogenes; 800 mg infrequent dose): 100%
- % of patients cured (cure and improvement) (Streptococcus pyogenes; 1200 mg single dose): 100%
- Mean Log CFU/thigh from baseline ([1]; MRSA (3 strains), HEQ dose 100 mg × 3 days): 0.8 Log CFU/thigh
- Mean Log CFU/thigh from baseline ([1]; MRSA (3 strains), HEQ dose 400 mg × 3 days): −2.8 Log CFU/thigh
- Mean Log CFU/thigh from baseline ([1]; MRSA (11 strains), HEQ dose 200 mg × 3 days): −0.9 Log CFU/thigh
- Mean Log CFU/thigh from baseline ([1]; MRSA (11 strains), HEQ dose 1200 mg × 1 day): −2.8 Log CFU/thigh
- ED50 ([1]; Staphylococcus aureus, single IV dose 1 h post-infection, 24 h readout, NRS123 (MRSA), neutropenic CD-1 mice, 95% CI in brackets, read-out: ED50 (dose resulting in 50% of the maximal killing)): 2.4 mg/kg
- ED50 (dose resulting in 50% of the maximal killing) ([1]; single IV dose 1 h post-infection, 24 h readout, NRS123 (MRSA), neutropenic CD-1 mice, 95% CI in brackets): 2.4 (0.8-7.3) mg/kg
- Log kill ([2]; HEQ dose 200 mg): > 2 Log
- Log kill ([2]; HEQ dose 400 mg): > 2 Log
- Log kill ([2]; HEQ dose 1200 mg): > 2 Log
- Mean Log CFU/thigh from baseline ([2]; HEQ dose 100 mg × 3 days): 1.5 Log CFU/thigh
- Mean Log CFU/thigh from baseline ([2]; HEQ dose 200 mg × 3 days): −0.1 Log CFU/thigh
- Mean Log CFU/thigh from baseline ([2]; HEQ dose 400 mg × 3 days): −1.6 Log CFU/thigh
- Mean Log CFU/thigh from baseline ([2]; HEQ dose 1200 mg × 1 day): −2.7 Log CFU/thigh
- ED50 ([2]; Staphylococcus aureus, single IV dose 1 h post-infection, 24 h readout, S. aureus ATCC13709 (MSSA), neutropenic CD-1 mice, 95% CI in brackets, read-out: ED50 (dose resulting in 50% of the maximal killing)): 5.8 mg/kg
- ED50 (dose resulting in 50% of the maximal killing) ([2]; single IV dose 1 h post-infection, 24 h readout, S. aureus ATCC13709 (MSSA), neutropenic CD-1 mice, 95% CI in brackets): 5.8 (3.3-10) mg/kg
- Bactericidal activity, log reduction [3]: ≥ 3 log
